Series [1] is described as follows: logP determination by HPLC (EEC Directive 79/831 Annex V.A8). Conditions: pH 2.
The subject of another series is Phytophthora infestans. The series is described as follows: whole plant or invertebrate. Conditions: in Solanum lycopersicum, 72 h, read-out: efficacy. It counts as in vivo.
Series [2] relates to apple mildew pathogen Podosphaera leucotricha. The series is described as follows: Podosphaera test (apple)/protective. It counts as in vivo. Conditions: 240 h, protective, application rate 100 g/ha, evaluation 10 days after inoculation, read-out: efficacy. The protocol: (§1) Podosphaera test (apple)/protective [table] To produce a suitable preparation of active compound, 1 part by weight of active compound is mixed with the stated amounts of solvent and emulsifier, and the concentrate is diluted with water to the desired concentration. To test for protective activity, young plants are sprayed with the preparation of active compound at the stated application rate. After the spray coating has dried on, the plants are inoculated with an aqueous spore suspension of the apple mildew pathogen Podosphaera leucotricha. The plants are then placed in a greenhouse at about 23° C. and about 70% relative atmospheric humidity.

The test system of a further series is Sphaerotheca fuliginea. The series is described as follows: Sphaerotheca test (cucumber)/protective. Conditions: Podosphaera fuliginea, 168 h, protective, application rate 100 g/ha, evaluation 7 days after inoculation, read-out: efficacy. It counts as in vivo. The procedure: as §1, with “Sphaerotheca” for “Podosphaera”, “(cucumber)/protective” for “(apple)/protective”, “Sphaerotheca fuliginea.” for “the apple mildew pathogen Podosphaera leucotricha.”

In series [3] the test system is apple scab pathogen Venturia inaequalis. The series is described as follows: Venturia test (apple)/protective. It counts as in vivo. Conditions: 240 h, protective, application rate 100 g/ha, evaluation 10 days after inoculation, read-out: efficacy. The procedure:
Venturia test (apple)/protective […] To produce a suitable preparation of active compound, 1 part by weight of active compound is mixed with the stated amounts of solvent and emulsifier, and the concentrate is diluted with water to the desired concentration. To test for protective activity, young plants are sprayed with the preparation of active compound at the stated application rate. After the spray coating has dried on, the plants are inoculated with an aqueous conidia suspension of the apple scab pathogen Venturia inaequalis and then remain in an incubation cabin at about 20° C. and 100% relative atmospheric humidity for 1 day. The plants are then placed in a greenhouse at about 21° C. and a relative atmospheric humidity of about 90%.

Series [4] has as its system green peach aphid (Myzus persicae). In words: Myzus test/broad beans. It counts as in vivo. Conditions: broad bean seedlings dipped, active compound concentration 100 ppm, after 6 days. The protocol:
Myzus test/broad beans [table] To produce a suitable preparation of active compound, 1 part by weight of active compound is mixed with the stated amount of solvent and the stated amount of emulsifier, and the concentrate is diluted with emulsifier-containing water to the desired concentration. Broad bean seedlings (Vicia faba minor) which are infected by the green peach aphid (Myzus persicae) are dipped into a preparation of active compound of the desired concentration and placed into a plastic dish. After the desired period of time, the kill in percent is determined. 100% means that all animals have been killed; 0% means that none of the animals have been killed.

Series [5] deals with Erysiphe graminis f.sp. hordei. In words: Erysiphe test (barley)/protective. Conditions: Blumeria graminis, 168 h, protective, application rate 500 g/ha, evaluation 7 days after inoculation, read-out: efficacy. It counts as in vivo. The procedure: Erysiphe test (barley)/protective [table] To produce a suitable preparation of active compound, 1 part by weight of active compound is mixed with the stated amounts of solvent and emulsifier, and the concentrate is diluted with water to the desired concentration. To test for protective activity, young plants are sprayed with the preparation of active compound at the stated application rate. After the spray coating has dried on, the plants are dusted with spores of Erysiphe graminis f.sp. hordei. The plants are placed in a greenhouse at a temperature of about 20° C. and a relative atmospheric humidity of about 80% to promote the development of mildew pustules.

Series [6] relates to army worm (Spodoptera frugiperda). The series is described as follows: Spodoptera frugipereda test/synthetic feed. It counts as in vivo. Conditions: larva (L3) on synthetic feed, concentration of active compound 500 ppm. The procedure: Spodoptera frugipereda test/synthetic feed [table] To produce a suitable preparation of active compound, 1 part by weight of active compound is mixed with the stated amount of solvent and the stated amount of emulsifier, and the concentrate is diluted with emulsifier-containing water to the desired concentration. A stated amount of the preparation of active compound of the desired concentration is pipetted onto a standardized amount of synthetic feed. In 6 replications, in each case one larva (L3) of the army worm (Spodoptera frugiperda) is placed onto the feed. After the desired period of time, the kill in % is determined. 100% means that all animals have been killed; 0% means that none of the animals have been killed.

Results on 3 molecules are retold here after patent US20050124498A1, “Halobenzyl substituted phenylaceto esters and amides and use thereof for prevention of harmful organisms” (priority 2002, published 2005).

On to `Cc1cccc(F)c1C(=O)C#N` [Example (XX-1), 2-fluoro-6-methylbenzoyl cyanide], for which the chromatographic logP (usually lipophilicity estimated from chromatographic retention) in series [1] amounted to 2.55.
In the case of `CNC(=O)/C(=N\OC)c1c(F)cccc1CO/N=C(\C)c1cccc(C(F)(F)F)c1` [Example 56], the pest or weed control at 100 g/ha in the series on Phytophthora infestans was at least 86%; in [2] it was at least 82%; with Sphaerotheca fuliginea, at least 98%; in series [3] it was at least 97%. Also, in [4], the kill came to 100%. In the series “physchem” (logP), this molecule returned a chromatographic logP of 3.8.
In the case of `CO/N=C(/C(=O)OC)c1c(F)cccc1Oc1ncnc(Oc2cccc(Cl)c2C)c1F` [Example 1, methyl {2-[6-(3-chloro-2-methylphenoxy)-5-fluoropyrimidin-4-yloxy]-6-fluorophenyl}methoxyiminoacetate], the pest or weed control at 100 g/ha in series [2] is at least 82%; with Sphaerotheca fuliginea it was at least 98%; in series [3] it was at least 97%. Further, the pest or weed control at 500 g/ha in series [5] was at least 98%. The molecule further returned a kill rate in [6] of at least 98%. For the same molecule, in “physchem” (pH 2, log P (pH 2)), the chromatographic logP was found to be 4.23.
